Measurements published in the NIST ThermoML archive (doi:10.1021/je400622g).

Tests used:
[1] = refractive index (Na D-line) (dimensionless); conditions: 298.15 K; 101.33 kPa; Liquid; Standard Abbe refractometry
[2] = Liquid; for mass density: 298.15 K, Vibrating tube method
[3] = xn = mol fraction of the nth substance listed; conditions: 298.15 K, Liquid, Vibrating tube method

CCOC(C)=O [ethyl acetate]
Conditions | mass density [kg/m3] | refractive index
[1] | – | 1.3698
[2] | 894.5 | –

Conditions | vapor or sublimation pressure [kPa]
[2], 417.02 K, Ebulliometric method (Recirculating still) | 600

Conditions | Normal boiling temperature [°C]
[2], Ebulliometric method (Recirculating still) | 77.04

CCOC(C)=O [ethyl acetate] + CCCO
[3]
Conditions | mass density [kg/m3]
x1 = 0.0442 | 804.5
x1 = 0.0911 | 809.6
x1 = 0.1433 | 815.2
x1 = 0.201 | 821.3
x1 = 0.2417 | 825.5
x1 = 0.2986 | 831.4
x1 = 0.3435 | 835.9
x1 = 0.4654 | 847.6
x1 = 0.5534 | 855.8
x1 = 0.6461 | 864.2
x1 = 0.6917 | 868.2
x1 = 0.7647 | 874.5
x1 = 0.8037 | 877.9
x1 = 0.8347 | 880.5
x1 = 0.8535 | 882.1
x1 = 0.9053 | 886.4
x1 = 0.9649 | 891.4
x1 = 1 | 894.5

COC(C)=O [methyl ethanoate]
Conditions | vapor or sublimation pressure [kPa]
[2], 393.01 K, Ebulliometric method (Recirculating still) | 600

CCCO [propan-1-ol]
Conditions | mass density [kg/m3]
[2] | 799.6

Conditions | vapor or sublimation pressure [kPa]
[2], 427.2 K, Ebulliometric method (Recirculating still) | 600

CCCO [propan-1-ol] + CCCOC(C)=O
Conditions | mass density [kg/m3]
[3], x2 = 0 | 799.6

CCCO [propan-1-ol] + CCOC(C)=O
Conditions | mass density [kg/m3]
[3], x2 = 0 | 799.6

CCCOC(C)=O [propyl ethanoate]
Conditions | mass density [kg/m3]
[2] | 882.4

Conditions | vapor or sublimation pressure [kPa]
[2], 446.02 K, Ebulliometric method (Recirculating still) | 600

CCCOC(C)=O [propyl ethanoate] + CCCO
[3]
Conditions | mass density [kg/m3]
x1 = 0.0544 | 805.9
x1 = 0.0997 | 810.9
x1 = 0.1515 | 816.5
x1 = 0.1951 | 821
x1 = 0.2503 | 826.4
x1 = 0.3164 | 832.6
x1 = 0.3481 | 835.4
x1 = 0.4144 | 841.2
x1 = 0.4959 | 847.9
x1 = 0.5463 | 851.8
x1 = 0.6051 | 856.2
x1 = 0.6968 | 862.8
x1 = 0.7528 | 866.6
x1 = 0.7893 | 869
x1 = 0.7984 | 869.7
x1 = 0.8531 | 873.2
x1 = 0.8873 | 875.4
x1 = 0.9521 | 879.4
x1 = 1 | 882.4
